Data on 77 compounds can be found in the RepoRT retention time repository.

This data set can be described thus: RP, Waters CORTECS UPLC C18, 100 × 2.1 mm, 1.6 µm, 40 °C, 0.4 mL/min, estimated dead time 0.55 min; A: water + 0.1% formic acid, pH 3; B: acetonitrile + 0.1% formic acid, pH 3; gradient (min/%B) 0/5 1.12/5 6.41/99.5 10.01/99.5. Conditions: stereoisomer not certain.
For the compound `N#CC(CCc1ccc(Cl)cc1)(Cn1cncn1)c1ccccc1` (configuration not stated) [Fenbucanozole], the LC retention time was 5.11 min.
With `CC1(C(=O)Nc2ccc(O)c(Cl)c2Cl)CCCCC1` [Fenhexamid], the LC retention time was 5 min.
In the case of `CCOC(=O)NCCOc1ccc(Oc2ccccc2)cc1` [Fenoxycarb], the LC retention time is 5.19 min.
On to `CC(Cc1ccc(C(C)(C)C)cc1)CN1CCCCC1` (configuration not stated) [Fenpropidine], for which the LC retention time is 4.27 min.
`Cc1nn(C)c(Oc2ccccc2)c1C=NOCc1ccc(C(=O)OC(C)(C)C)cc1` [Fenpyroximate]: the LC retention time is 6.25 min.
Next, `CN(C)C(=O)Nc1ccccc1` [Fenuron]: 3.14 min; `N#CCNC(=O)c1cnccc1C(F)(F)F` [Flonicamid]: 2.88 min.
For `O=[N+]([O-])c1cc(C(F)(F)F)c(Cl)c([N+](=O)[O-])c1Nc1ncc(C(F)(F)F)cc1Cl` [Fluazinam], the LC retention time is 5.97 min.
For the compound `Cc1cc(C(F)(C(F)(F)F)C(F)(F)F)ccc1NC(=O)c1cccc(I)c1C(=O)NC(C)(C)CS(C)(=O)=O` [Flubendiamide], the LC retention time was 5.35 min.
With `CC(C)N(C(=O)COc1nnc(C(F)(F)F)s1)c1ccc(F)cc1` [Flufenacet], the LC retention time is 5.22 min.
`O=C(NC(=O)c1c(F)cccc1F)Nc1ccc(Oc2ccc(C(F)(F)F)cc2Cl)cc1F` [Flufenoxuron]: the LC retention time is 6.08 min.
As for `Cc1ccn2nc(S(=O)(=O)Nc3c(F)cccc3F)nc2n1` [Flumetsulam], the LC retention time is 3.43 min.
As to `C#CCN1C(=O)COc2cc(F)c(N3C(=O)C4=C(CCCC4)C3=O)cc21` [Flumioxazin], the LC retention time was 4.77 min.
Next, `CN(C)C(=O)Nc1cccc(C(F)(F)F)c1` [Fluometuron]: 4.2 min.
In the case of `O=C(NCc1ncc(C(F)(F)F)cc1Cl)c1c(Cl)cccc1Cl` [Fluopicolide], the LC retention time was 5.06 min.
Next, `CON=C(C1=NOCCO1)c1ccccc1Oc1ncnc(Oc2ccccc2Cl)c1F` [Fluoxastrobin]: 5.22 min.
For `O=c1c2cc(F)ccc2nc(-n2cncn2)n1-c1ccc(Cl)cc1Cl` [Fluquinconazole], the LC retention time is 5.01 min.
For `C[Si](Cn1cncn1)(c1ccc(F)cc1)c1ccc(F)cc1` [Flusilazole], the LC retention time was 5.06 min.
In the case of `OC(Cn1cncn1)(c1ccc(F)cc1)c1ccccc1F` (configuration not stated) [Flutriafol], the LC retention time was 4.2 min.
As to `O=C(Nc1ccccc1)Nc1ccnc(Cl)c1` [Forchlorfenuron], the LC retention time is 4.19 min.
In the case of `CCOP(=O)(SC(C)CC)N1CCSC1=O` (configuration not stated) [Fosthiazate], the LC retention time is 4.22 min.
As for `c1coc(-c2nc3ccccc3[nH]2)c1` [Fuberidazole], the figure is 2.63 min.
On to `COC(=O)C(C)N(C(=O)c1ccco1)c1c(C)cccc1C` (configuration not stated) [Furalaxyl], for which the LC retention time was 4.79 min.
Next, `CCCCOC(=O)N(C)SN(C)C(=O)Oc1cccc2c1OC(C)(C)C2` [Furathiocarb]: 6.05 min; `Nc1nc2nc[nH]c2c(=O)[nH]1` [GUANINE]: 0.76 min; `Nc1nc2c(ncn2C2OC(CO)C(O)C2O)c(=O)[nH]1` (configuration not stated) [GUANOSINE]: 0.76 min.
For `O=C(O)c1cc(O)c(O)c(O)c1` [Gallic acid], the LC retention time was 0.886 min.
For the compound `CC(CCC(=O)NCC(=O)O)C1CCC2C3C(O)CC4CC(O)CCC4(C)C3CC(O)C12C` (configuration not stated) [Glycocholic acid hydrate], the LC retention time is 4.08 min.
With `CC(CCC(=O)NCC(=O)O)C1CCC2C3CCC4CC(O)CCC4(C)C3CC(O)C12C` (configuration not stated) [Glycodeoxycholic acid], the LC retention time was 4.66 min.
Next, `CC(CCC(=O)NCC(=O)O)C1CCC2C3CC(O)C4CC(O)CCC4(C)C3CCC12C` (configuration not stated) [Glycohyodeoxycholic acid]: 4.08 min; `CC(CCC(=O)NCC(=O)O)C1CCC2C3CCC4CC(O)CCC4(C)C3CCC12C` (configuration not stated) [Glycolithocholic acid]: 5.25 min; `CC(C)(C)N(NC(=O)c1ccc(Cl)cc1)C(=O)c1ccccc1` [Halofenozide]: 4.84 min.
With `CCCCC(O)(Cn1cncn1)c1ccc(Cl)cc1Cl` (configuration not stated) [Hexaconazole], the LC retention time is 5.17 min.
Next, `O=C(NC(=O)c1c(F)cccc1F)Nc1cc(Cl)c(OC(F)(F)C(F)F)c(Cl)c1` [Hexaflumuron]: 5.61 min; `CCCCCC(=O)OC(CC(=O)[O-])C[N+](C)(C)C` [Hexanoyl-L-carnitine]: 3.05 min; `CC1C(c2ccc(Cl)cc2)SC(=O)N1C(=O)NC1CCCCC1` (configuration not stated) [Hexythiazox]: 6.21 min.
`O=C(O)CNC(=O)c1ccccc1` [Hippuric acid]: the LC retention time was 2.6 min.
Consider `CC1(C)CN=C(NN=C(C=Cc2ccc(C(F)(F)F)cc2)C=Cc2ccc(C(F)(F)F)cc2)NC1` [Hydramethylnon (Amdro)], for which the LC retention time is 5.14 min.
Next, `CC(CCC(=O)O)C1CCC2C3CC(O)C4CC(O)CCC4(C)C3CCC12C` (configuration not stated) [Hyodeoxycholic acid]: 4.58 min; `NC(=O)Cc1c[nH]c2ccccc12` [INDOLE-3-ACETAMIDE]: 2.89 min; `OCCc1c[nH]c2ccccc12` [INDOLE-3-ETHANOL]: 3.05 min.
As for `COC(=O)Cc1c[nH]c2ccccc12` [INDOLE-3-METHYL ACETATE], the figure is 4.14 min.
`O=CCc1c[nH]c2ccccc12` [INDOLEACETALDEHYDE]: the LC retention time was 2.55 min.
For `C=CCOC(Cn1ccnc1)c1ccc(Cl)cc1Cl` (configuration not stated) [Imazalil], the LC retention time was 3.88 min.
For the compound `O=[N+]([O-])NC1=NCCN1Cc1ccc(Cl)nc1` [Imidacloprid], the LC retention time is 3.19 min.
For the compound `O=C(O)CCCc1c[nH]c2ccccc12` [Indole-3-butyric acid], the LC retention time was 3.94 min.
As for `O=Cc1c[nH]c2ccccc12` [Indole-3-carboxaldehyde], the figure is 3.28 min.
For the compound `O=C(O)c1c[nH]c2ccccc12` [Indole-3-carboxylic acid], the LC retention time is 3.21 min.
With `O=C(O)CCc1c[nH]c2ccccc12` [Indole-3-propionic acid], the LC retention time was 3.7 min.
`COC(=O)N(C(=O)N1COC2(C(=O)OC)Cc3cc(Cl)ccc3C2=N1)c1ccc(OC(F)(F)F)cc1` (configuration not stated) [Indoxacarb]: the LC retention time was 5.75 min.
Regarding `CC(C)C1CCC(Cc2ccc(Cl)cc2)C1(O)Cn1cncn1` (configuration not stated) [Ipconazole], the LC retention time was 5.48 min.
Next, `Cc1ccc(C(C)NC(=O)C(NC(=O)OC(C)C)C(C)C)cc1` (configuration not stated) [Iprovalicarb]: 4.86 min; `CC(C)C(=O)OC(CC(=O)[O-])C[N+](C)(C)C` [Isobutyryl-L-carnitine]: 1.79 min.
As for `COP(N)(=S)Oc1ccccc1C(=O)OC(C)C` (configuration not stated) [Isocarbophos], the LC retention time was 2.32 min.
With `CC(C)OC(=O)C(C(=O)OC(C)C)=C1SCCS1` [Isoprothiolane], the LC retention time is 5.21 min.
With `CC(C)CC(=O)OC(CC(=O)[O-])C[N+](C)(C)C` [Isovaleryl-L-carnitine], the LC retention time was 2.61 min.
As for `CCC(C)(CC)c1cc(NC(=O)c2c(OC)cccc2OC)on1` [Isoxaben], the figure is 5.08 min.
`CS(=O)(=O)c1cc(C(F)(F)F)ccc1C(=O)c1cnoc1C1CC1` [Isoxaflutole]: the LC retention time is 4.85 min.
For `O=C(O)c1cc(=O)c2ccccc2[nH]1` [KYNURENATE], the LC retention time is 2.35 min.
Turning to `Nc1ccccc1C(=O)CC(N)C(=O)O` (configuration not stated) [KYNURENINE], the LC retention time is 1.19 min.
For the compound `CON=C(C(=O)OC)c1ccccc1COc1ccccc1C` [Kresoxim-methyl], the LC retention time was 5.42 min.
As to `O=C1CC[C@@H](C(=O)O)N1` [L-Pyroglutamic acid], the LC retention time is 0.71 min.
Consider `NC(=O)[C@@H](N)Cc1c[nH]c2ccccc12` [L-TRYPTOPHANAMIDE], for which the LC retention time is 1.79 min.
`NC(Cc1cc(I)c(Oc2ccc(O)c(I)c2)c(I)c1)C(=O)O` (configuration not stated) [LIOTHYRONINE]: the LC retention time was 3.71 min.
Next, `Cc1cc2nc3[nH]c(=O)[nH]c(=O)c3nc2cc1C` [LUMICHROME]: 3.26 min; `CCCCCCCCCCCC(=O)OC(CC(=O)[O-])C[N+](C)(C)C` [Lauroyl-L-carnitine]: 4.7 min; `O=c1[nH]c2c(c(=O)n1C1CCCCC1)CCC2` [Lenacil]: 3.96 min.
`CON(C)C(=O)Nc1ccc(Cl)c(Cl)c1` [Linuron]: the LC retention time is 4.8 min.
`O=C(NC(=O)c1c(F)cccc1F)Nc1cc(Cl)c(OC(F)(F)C(F)C(F)(F)F)cc1Cl` (configuration not stated) [Lufenuron]: the LC retention time is 5.91 min.
Turning to `COc1ccc2[nH]cc(CCNC(C)=O)c2c1` [MELATONIN], the LC retention time is 3.31 min.
Take `CSCC1OC(n2cnc3c(N)ncnc32)C(O)C1O` (configuration not stated) [METHYLTHIOADENOSINE]: the LC retention time is 2.19 min.
As for `COC(=O)CCCC(=O)O` [MONOMETHYLGLUTARATE], the figure is 2.47 min.
`CCOC(=O)CC(SP(=O)(OC)OC)C(=O)OCC` (configuration not stated) [Malaoxon]: the LC retention time was 4.05 min.
As for `C#CCOc1ccc(CCNC(=O)C(OCC#C)c2ccc(Cl)cc2)cc1OC` (configuration not stated) [Mandipropamid], the LC retention time was 4.95 min.
For the compound `CCOC(=O)N(C)C(=O)CSP(=S)(OCC)OCC` [Mecarbam], the LC retention time is 5.34 min.
Consider `CC#Cc1cc(C)nc(Nc2ccccc2)n1` [Mepanipyrim], for which the LC retention time was 5.11 min.
For the compound `COC(=O)c1ccc(CNS(C)(=O)=O)cc1S(=O)(=O)NC(=O)Nc1nc(OC)cc(OC)n1` [Mesosulfuron-methyl], the LC retention time is 4.24 min.
